This is an account of results in patent publication US20250353891A1 (MEDIMMUNE LIMITED, priority 2022, published 2025).

Assay [1] addresses human GLP-1 receptor (hGLP-1R) (Homo sapiens, UniProt P43220). As to the kind of experiment: cAMP production (HTRF) in CHO cells expressing hGLP-1R. In kind it is cell-based. On the set-up: expressed in transfected cells. The conditions noted are these: for EC50: geometric mean, read-out: hGLP-1R EC50; for % Relative Potency Ratio: % GLP-1R activity relative to GLP-1 / % GlucR activity relative to glucagon. The essentials: (§1)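 Read-out: HTRF cAMP (anti-cAMP cryptate donor, cAMP-d2 acceptor in conjugate/lysis buffer), converted to % Delta F and fitted by 4-parameter logistic for EC50. Cell densities were 1×10^5 cells/mL (hGLP-1R) or 2×10^5 cells/mL (hGCGR). Stimulation lasted 30 min at room temperature.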

For assay [2], the target named is human glucagon receptor (hGCGR) (Homo sapiens, UniProt P47871). As to the kind of experiment: cAMP production (HTRF) in CHO cells expressing hGCGR. In kind it is cell-based. On the set-up: expressed in transfected cells. The conditions noted are these: geometric mean, read-out: hGluc-R EC50. The essentials:
as §1
In general terms: Cyclic AMP is a second messenger, typically raised through Gs and lowered through Gi signalling.

The mark [3] stands for this setting: Table 7, peptides modified at position 20, cAMP in CHO hGLP-1R cells.
[4] abbreviates: Table 7, peptides modified at position 20, cAMP in CHO hGCGR cells.
[5] abbreviates: Table 6, peptides modified at position 17, cAMP in CHO hGLP-1R cells.
The mark [6] stands for this setting: Table 6, peptides modified at position 17, cAMP in CHO hGCGR cells.

Where two headings read alike, the source gives them in different places. Starred links: 1 amine or outer side, 2 acyl side, 3 side chain; linkers in the order of their positions; H or OH if unused. Non-standard residues stand in square brackets, D forms with d. Residues, ends and D or L forms follow the SMILES beside them. Groups on a side chain read outwards from the residue. *: point of attachment. C18 diacid = O=C(O)CCCCCCCCCCCCCCCCC(=O)*; γGlu = O=C(O)[C@H](CCC(=O)[*:2])N[*:1]; αMeF = C[C@](N)(Cc1ccccc1)C(=O)O; AEEA = NCCOCCOCC(=O)O; Aib = CC(C)(N)C(=O)O

Sequence of human glucagon receptor (hGCGR) (P47871 26-477): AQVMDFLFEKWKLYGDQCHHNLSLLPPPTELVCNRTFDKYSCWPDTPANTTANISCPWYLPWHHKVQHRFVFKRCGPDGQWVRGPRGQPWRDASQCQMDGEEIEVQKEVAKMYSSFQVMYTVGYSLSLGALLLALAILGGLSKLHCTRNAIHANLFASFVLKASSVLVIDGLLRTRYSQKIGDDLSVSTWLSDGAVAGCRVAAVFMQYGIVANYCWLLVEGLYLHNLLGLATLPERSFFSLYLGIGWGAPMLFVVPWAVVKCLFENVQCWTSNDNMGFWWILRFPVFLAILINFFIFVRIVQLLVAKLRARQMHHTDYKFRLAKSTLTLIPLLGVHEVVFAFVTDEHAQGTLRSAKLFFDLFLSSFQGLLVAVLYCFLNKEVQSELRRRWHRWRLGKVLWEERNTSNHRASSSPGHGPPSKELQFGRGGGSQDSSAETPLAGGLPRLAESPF
Sequence of human GLP-1 receptor (hGLP-1R) (P43220 24-463): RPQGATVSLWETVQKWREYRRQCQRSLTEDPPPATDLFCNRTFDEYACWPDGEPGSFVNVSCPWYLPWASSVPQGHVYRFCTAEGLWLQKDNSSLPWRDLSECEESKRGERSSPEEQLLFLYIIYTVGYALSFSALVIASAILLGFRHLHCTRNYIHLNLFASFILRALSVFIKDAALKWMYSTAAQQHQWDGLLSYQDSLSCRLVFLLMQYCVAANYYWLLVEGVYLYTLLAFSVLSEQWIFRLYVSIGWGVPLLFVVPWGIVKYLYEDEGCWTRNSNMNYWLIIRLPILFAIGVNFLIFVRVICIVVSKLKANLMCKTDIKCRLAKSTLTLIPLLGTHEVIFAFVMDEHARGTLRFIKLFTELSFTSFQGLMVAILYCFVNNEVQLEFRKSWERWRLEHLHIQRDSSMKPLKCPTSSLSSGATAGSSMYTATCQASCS

`CC[C@H](C)[C@H](NC(=O)C(C)(C)NC(=O)[C@H](CCC(N)=O)NC(=O)[C@@H](NC(=O)[C@](C)(Cc1ccccc1)NC(=O)[C@H](CC(=O)O)NC(=O)[C@H](CCCCNC(=O)CC[C@H](NC(=O)CC[C@H](NC(=O)CCCCCCCCCCCCCCCCC(=O)O)C(=O)O)C(=O)O)NC(=O)[C@H](C)NC(=O)[C@H](C)NC(=O)[C@H](CCCNC(=N)N)NC(=O)[C@H](CO)NC(=O)[C@H](CC(=O)O)NC(=O)[C@H](CC(C)C)NC(=O)[C@](C)(Cc1ccccc1)NC(=O)[C@H](CCCCN)NC(=O)[C@H](CO)NC(=O)[C@@H](NC(=O)[C@H](CC(=O)O)NC(=O)[C@H](CO)NC(=O)[C@@H](NC(=O)[C@](C)(Cc1ccccc1)NC(=O)[C@H](CO)NC(=O)CNC(=O)[C@H](Cc1c[nH]cn1)NC(=O)C(C)(C)NC(=O)[C@@H](N)Cc1c[nH]cn1)[C@@H](C)O)C(C)C)C(C)C)C(=O)N[C@@H](C)C(=O)N[C@@H](CC(N)=O)C(=O)N[C@H](C(N)=O)[C@@H](C)O` [Peptide 270] (H-H[Aib]HGS[αMeF]TSDVSK[αMeF]LDSRAAK([γGlu-γGlu-C18 diacid])D[αMeF]VQ[Aib]IANT-NH2): the 50% effective concentration (EC50) (as a rule, the concentration at which the effect is half-maximal) in assay [1] (setting [3]) turned out to be 0.0244 nM; in assay [2] (setting [4]) it was 0.0313 nM. Also, the “% Relative Potency Ratio” value in assay [1] (Table 7) is 2.5.

Take `CC[C@H](C)[C@H](NC(=O)C(C)(C)NC(=O)[C@H](CCC(N)=O)NC(=O)[C@@H](NC(=O)[C@H](Cc1ccccc1)NC(=O)[C@H](CC(=O)O)NC(=O)[C@H](CCC(N)=O)NC(=O)[C@H](C)NC(=O)[C@H](C)NC(=O)[C@H](CCCCNC(=O)COCCOCCNC(=O)COCCOCCNC(=O)CC[C@H](NC(=O)CCCCCCCCCCCCCCCCC(=O)O)C(=O)O)NC(=O)[C@H](CO)NC(=O)[C@H](CC(=O)O)NC(=O)[C@H](CC(C)C)NC(=O)[C@](C)(Cc1ccccc1)NC(=O)[C@H](CCCCN)NC(=O)[C@H](CO)NC(=O)[C@@H](NC(=O)[C@H](CC(=O)O)NC(=O)[C@H](CO)NC(=O)[C@@H](NC(=O)[C@](C)(Cc1ccccc1)NC(=O)[C@H](CO)NC(=O)CNC(=O)[C@H](Cc1c[nH]cn1)NC(=O)C(C)(C)NC(=O)[C@@H](N)Cc1c[nH]cn1)[C@@H](C)O)C(C)C)C(C)C)C(=O)N[C@@H](C)C(=O)N[C@@H](CC(N)=O)C(=O)N[C@H](C(N)=O)[C@@H](C)O` [Peptide 11] (H-H[Aib]HGS[αMeF]TSDVSK[αMeF]LDSK([AEEA-AEEA-γGlu-C18 diacid])AAQDFVQ[Aib]IANT-NH2): the concentration for a half-maximal effect (EC50) worked out at 0.157 nM in assay [1] (setting [5]) and 0.118 nM in assay [2] (setting [6]). Moreover, the “% Relative Potency Ratio” value in assay [1] (Table 6) turned out to be 1.5.

Take `CC[C@H](C)[C@H](NC(=O)C(C)(C)NC(=O)[C@H](CCC(N)=O)NC(=O)[C@@H](NC(=O)[C@](C)(Cc1ccccc1)NC(=O)[C@H](CC(=O)O)NC(=O)[C@H](CCC(N)=O)NC(=O)[C@H](C)NC(=O)[C@H](C)NC(=O)[C@H](CCCNC(=N)N)NC(=O)[C@H](CO)NC(=O)[C@H](CC(=O)O)NC(=O)[C@H](CC(C)C)NC(=O)[C@H](CCCCNC(=O)COCCOCCNC(=O)COCCOCCNC(=O)CC[C@H](NC(=O)CCCCCCCCCCCCCCCCC(=O)O)C(=O)O)NC(=O)[C@H](CCCCN)NC(=O)[C@H](CO)NC(=O)[C@@H](NC(=O)[C@H](CC(=O)O)NC(=O)[C@H](CO)NC(=O)[C@@H](NC(=O)[C@](C)(Cc1ccccc1)NC(=O)[C@H](CO)NC(=O)CNC(=O)[C@H](Cc1c[nH]cn1)NC(=O)C(C)(C)NC(=O)[C@@H](N)Cc1c[nH]cn1)[C@@H](C)O)C(C)C)C(C)C)C(=O)N[C@@H](C)C(=O)N[C@@H](CC(N)=O)C(=O)N[C@H](C(N)=O)[C@@H](C)O` [Peptide 406] (H-H[Aib]HGS[αMeF]TSDVSKK([AEEA-AEEA-γGlu-C18 diacid])LDSRAAQD[αMeF]VQ[Aib]IANT-NH2; N-terminus assumed): the “% Relative Potency Ratio” value in assay [1] was 31.6. Besides, the concentration giving a half-maximal response (EC50) in assay [1] (cAMP, CHO cells, 0.1% BSA) amounted to 0.458 nM; in assay [2] (cAMP, CHO cells, 0.1% BSA), 7.31 nM.

Turning to `CC(C)C[C@H](NC(=O)[C@H](CC(C)C)NC(=O)[C@H](Cc1c[nH]c2ccccc12)NC(=O)[C@H](CCCNC(=N)N)NC(=O)[C@@H](NC(=O)[C@H](Cc1ccccc1)NC(=O)[C@H](CC(=O)O)NC(=O)[C@H](CCC(N)=O)NC(=O)[C@H](C)NC(=O)[C@H](CCCNC(=N)N)NC(=O)[C@H](CCCCNC(=O)COCCOCCNC(=O)COCCOCCNC(=O)CC[C@H](NC(=O)CCCCCCCCCCCCCCCCCCC(=O)O)C(=O)O)NC(=O)[C@H](CCCCN)NC(=O)[C@H](CC(=O)O)NC(=O)[C@H](CC(C)C)NC(=O)[C@](C)(Cc1ccccc1)NC(=O)[C@H](CCCCN)NC(=O)[C@H](CO)NC(=O)[C@@H](NC(=O)[C@H](CC(=O)O)NC(=O)[C@H](CO)NC(=O)[C@@H](NC(=O)[C@H](Cc1ccccc1)NC(=O)[C@@H](NC(=O)CNC(=O)[C@H](CCC(N)=O)NC(=O)C(C)(C)NC(=O)[C@@H](N)Cc1c[nH]cn1)[C@@H](C)O)[C@@H](C)O)C(C)C)C(C)C)C(=O)N[C@@H](C)C(=O)N[C@@H](CCC(=O)O)C(N)=O` [Peptide 460], the values for the concentration for a half-maximal effect (EC50) in assay [1] (setting [5]) and in assay [2] (setting [6]) were 0.117 nM and 0.0665 nM, respectively. Further, the “% Relative Potency Ratio” value in assay [1] (Table 6) was found to be 1.1.

Turning to `CC[C@H](C)[C@H](NC(=O)[C@H](Cc1c[nH]c2ccccc12)NC(=O)[C@H](CCC(N)=O)NC(=O)[C@@H](NC(=O)[C@H](Cc1ccccc1)NC(=O)[C@H](CC(=O)O)NC(=O)[C@H](CCCCNC(=O)COCCOCCNC(=O)COCCOCCNC(=O)CC[C@H](NC(=O)CCCCCCCCCCCCCCCCC(=O)O)C(=O)O)NC(=O)[C@H](C)NC(=O)[C@H](C)NC(=O)[C@H](CCCNC(=N)N)NC(=O)[C@H](CO)NC(=O)[C@H](CC(=O)O)NC(=O)[C@H](CC(C)C)NC(=O)[C@](C)(Cc1ccccc1)NC(=O)[C@H](CCCCN)NC(=O)[C@H](CO)NC(=O)[C@@H](NC(=O)[C@H](CC(=O)O)NC(=O)[C@H](CO)NC(=O)[C@@H](NC(=O)[C@H](Cc1ccccc1)NC(=O)[C@H](CO)NC(=O)CNC(=O)[C@H](Cc1c[nH]cn1)NC(=O)C(C)(C)NC(=O)[C@@H](N)Cc1c[nH]cn1)[C@@H](C)O)C(C)C)C(C)C)C(=O)N[C@@H](C)C(=O)N[C@@H](CC(N)=O)C(=O)N[C@H](C(N)=O)[C@@H](C)O` [Peptide 293] (H-H[Aib]HGSFTSDVSK[αMeF]LDSRAAK([AEEA-AEEA-γGlu-C18 diacid])DFVQWIANT-NH2), the EC50 in assay [1] (setting [3]) was found to be 0.092 nM; in assay [2] (setting [4]) it was 0.0335 nM. Besides, the “% Relative Potency Ratio” value in assay [1] (Table 7) came to 0.7.

On to `CC[C@H](C)[C@H](NC(=O)C(C)(C)NC(=O)[C@H](CCC(N)=O)NC(=O)[C@@H](NC(=O)[C@](C)(Cc1ccccc1)NC(=O)[C@H](CC(=O)O)NC(=O)[C@H](CCCCNC(=O)COCCOCCNC(=O)CC[C@H](NC(=O)COCCOCCNC(=O)CCCCCCCCCCCCCCCCC(=O)O)C(=O)O)NC(=O)[C@H](C)NC(=O)[C@H](C)NC(=O)[C@H](CCCNC(=N)N)NC(=O)[C@H](CO)NC(=O)[C@H](CC(=O)O)NC(=O)[C@H](CC(C)C)NC(=O)[C@](C)(Cc1ccccc1)NC(=O)[C@H](CCCCN)NC(=O)[C@H](CO)NC(=O)[C@@H](NC(=O)[C@H](CC(=O)O)NC(=O)[C@H](CO)NC(=O)[C@@H](NC(=O)[C@](C)(Cc1ccccc1)NC(=O)[C@H](CO)NC(=O)CNC(=O)[C@H](Cc1c[nH]cn1)NC(=O)C(C)(C)NC(=O)[C@@H](N)Cc1c[nH]cn1)[C@@H](C)O)C(C)C)C(C)C)C(=O)N[C@@H](C)C(=O)N[C@@H](CC(N)=O)C(=O)N[C@H](C(N)=O)[C@@H](C)O` [Peptide 259] (H-H[Aib]HGS[αMeF]TSDVSK[αMeF]LDSRAAK([AEEA-γGlu-AEEA-C18 diacid])D[αMeF]VQ[Aib]IANT-NH2), for which the concentration for a half-maximal effect (EC50) in assay [1] (setting [3]) worked out at 0.0191 nM; in assay [2] (setting [4]) it was 0.0348 nM. In assay [1] (Table 7), the “% Relative Potency Ratio” value came to 3.6.
